In patent publication US20080167272A1, “Thalidomide metabolites and methods of use” (Auckland Uniservices Limited, priority 2005, published 2008):

How the values were obtained:
TNF [1] = assay: Modulation of TNF production in Colon 38 tumour-bearing mice (serum and tumour, ELISA); type: in vivo; conditions: 3 h
Method: Mice with Colon 38 tumours, approximately 5-7 mm in diameter, were divided into groups of 5. One group was untreated. Other groups were treated with DMXAA (25 mg/kg) alone; DMXAA (25 mg/kg)+thalidomide (100 mg/kg), DMXAA (25 mg/kg)+PG (100 mg/kg), DMXAA (25 mg/kg)+PiG (100 mg/kg), DMXAA (25 mg/kg)+CG (100 mg/kg), DMXAA (25 mg/kg)+thalidomide (20 mg/kg), DMXAA (25 mg/kg)+CG (20 mg/kg), and thalidomide, PG, PiG or CG only at 100 and 200 mg/kg. Three hours after treatment, mice were anaesthetized with halothane (NZ Pharmacology Ltd., Christchurch, New Zealand), and blood was collected from the ocular sinus and tumours were excised. Blood was coagulated overnight at 4° C., and then centrifuged for 30 min at 2,000×g and 4° C., and the serum was removed and stored at −80° C. until use. Tumour tissues were weighed and homogenized in 1.5 ml α-minimal essential medium (Gibco, Grand Island, N.Y., USA). The homogenates were centrifuged (2,000×g, 30 min, 4° C.) and supernatant was removed and re-centrifuged (14,000×g, 30 min, 4° C.). The final supernatants were removed and kept at −80° C. until use. TNF levels in serum and supernatants derived from tumour homogenates were assayed for TNF as described in section 4 (below).
(§1) TNF was assayed using a commercially available ELISA kit (OpEIA human or murine TNF kit, PharMingen, San Diego, Calif., USA), according to the manufacturer's instructions. Briefly, samples (100 μl/well) in duplicate together with a serial dilution of TNF (31.25-2000 pg/ml) for the standard curve, were added to flat-bottom 96-well plates pre-coated with immobilised monoclonal anti-TNF antibody and incubated at room temperature for 2 h. The wells were then washed, biotinylated polyclonal antibody to TNF was added, followed by peroxidase-labelled streptavidin, and incubated at room temperature for 1 h. The wells were washed again, and the substrate, tetramethylbenzidine and hydrogen peroxide was added and after 10 min the reaction was stopped with 2 N sulphuric acid. The absorbance at 450 nm was determined using a microtitre plate reader.

ECV304 cells [2] = assay: MTT cytotoxicity assay; type: cell-based, human; conditions: 18 h, 2-250/g/ml, vs untreated or DMSO-treated cultures
Method: The 3-(4,5-dimethylthiazol-2-yl)-2,5-diphenyl tetrazolium bromide (MTT) assay, which measures mitochondrial metabolic activity, was used to determine cell viability (Mosmann, 1983). Cells (4×10^3/well) were cultured with various concentrations of thalidomide, CG, PG and PiG in a final volume of 100 μl M199 medium (Gibco, Grand Island, N.Y., USA) supplemented with 10% foetal bovine serum ([…] streptomycin sulphate and 100 units/ml penicillin-G (Sigma, St Louis, Calif., USA) in flat-bottomed 96-well plates at 37° C. at 5% CO2 for 18 h. At the end of the incubation period, 10 μl of MTT (Sigma, St. Louis, Mo., 5 mg/ml in PBS) was added to each well, and the cells were further incubated for 2 h. The supernatants were then removed and the formazan crystals in the cells were dissolved by the addition of 100 μl of DMSO per well, and the absorbance at 590 nm was read using a plate reader. Each concentration of drug was tested in triplicate wells, and the mean ±standard error of the mean (SEM) was calculated.

Colon 38 tumours = assay: Tumour growth delay, Colon 38 tumours in mice, combination with DMXAA; type: in vivo; conditions: for tumour volumes at 21 days after treatment compared with DMXAA alone: FIG. 2; for inhibition of tumour growth compared with DMXAA alone: 100 mg/kg i.p. co-administered with DMXAA 25 mg/kg, FIG. 1A
Description: Mice (C57B1/6 bred at the Animal Resources Unit, University of Auckland, New Zealand) were implanted with Colon 38 tumours, obtained originally from the Mason Research Institute (Auckland, New Zewaland) by transferring 1 mm^3 pieces of the tumour into a subcutaneous opening in the left flank of anaesthetized mice. The mice with tumours were used for growth delay experiments when tumours had reached approximately 3-5 mm in diameter. Mice were divided into 10 groups, an untreated control group, a group treated intraperitoneally (i.p.) with DMXAA (5,6-dimethylxanthenone-4-acetic acid, synthesized at the Auckland Cancer Society Research Centre—ACSRC (Auckland, New Zealand) at 25 mg/kg only, and 8 groups treated with DMXAA together with the hydrolytic thalidomide metabolites PG, PiG, CG also synthesized at the ACSRC as previously described (Lu et al, 2003), or thalidomide at 100 mg/kg, or together with CG or thalidomide at 20 mg/kg or 4 mg/kg. DMXAA was dissolved in saline at 2.5 mg/ml and injected i.p. into mice in a volume of 10 μl/g body weight. Thalidomide, PG, PiG and CG were dissolved in dimethylsulphoxide at 40, 8 or 1.6 mg/ml (for dosages of 100, 20, 4 mg/kg respectively) and injected i.p. in a volume of 2.5 μl/g body weight. Tumours were measured 2-3 times weekly after treatment and tumour volumes were calculated as 0.52×a^2×b, where a and b are the minor and major axes of the tumour. The arithmetic means and standard errors were calculated for each point, counting cured animals as having zero tumour volume, and expressed as fractions of the pre-treatment volume. Growth delay was determined as the difference in the number of days required for the tumour to reach four times the pre-treatment volume.

ECV304 cells [3] = assay: Inhibition of tube formation of ECV304 cells in Matrigel; type: cell-based, human
Method: Each well in a 24-well plate was coated with 300 μl of Matrigel (Becton Dickinson, San Jose, Calif., USA) which was allowed to solidified at 37° C. for 1 h. […] After 15-18 h of incubation at 37° C. at 5% CO2, the culture supernatant was aspirated. The cells were fixed and stained using Diff-Quick staining kit (Dade AG, Dudingen, Switzerland) according to the manufacturer's instructions. After removal of the staining solution the stained cells in each well were photographed along with a measuring ruler placed at the bottom edge of the photographing field (Olympus Camedia C-5050 professional digital camera, Olympus Optical, Tokyo, Japan). The total length of the tubes formed in the photographs was measured and divided by the area of the field (mm/mm^2).

TNF [4] = assay: LPS-induced TNF production by HPBL in culture; type: cell-based, human; conditions: HPBL, LPS 100 pg/ml, 12 h; all concentrations tested (PG, PiG: 1, 5, 25 μg/ml); FIG. 5
Method: Blood (20 ml) each from seven healthy volunteers was collected into heparinized tubes, and was overlayed on top of 10 ml of Ficoll-Paque Plus (Amersham Biosciences AB, Uppsala, Sweden) in 50 ml Falcon polypropylene conical tubes (Becton Dickson Labware, Franklin Lakes, N.J.). The tubes were centrifuged for 30 min at 300×g and 4° C., and the layer of cells was removed and re-suspended at 1×10^6 cells/ml in A-MEM medium supplemented with foetal bovine serum (Moregate BioTech Ltd, Hamilton, New Zealand) (10% v/v), streptomycin sulphate (100 μg/ml) and penicillin-G (100 units/ml) (Sigma, St Louis, Mo., USA). Cells were added to a 24-well plate (Nunc, Kamstrup, Roskilde, Denmark) with LPS (Escherichia coli serotype 055:B5; Sigma, St. Louis, Mo., USA) plus thalidomide or CG at 0.04, 0.2, 1, 5, 25 & 100 μg/ml; or PG or PiG at 1, 5 & 25 μg/ml in a final volume of 1 ml. Wells containing cells only and cells plus LPS only were included as controls. After 12 hours of incubation, supernatants were removed and assayed immediately for TNF as described in section 4.
as §1

[5] = 100 mg/kg co-administered with DMXAA 25 mg/kg, FIG. 3A
[6] = 100 mg/kg co-administered with DMXAA 25 mg/kg, FIG. 3B
[7] = 100 mg/kg co-administered with DMXAA 25 mg/kg
[8] = all concentrations tested, FIG. 6

SMILES	increase in serum TNF activity above control untreated mice (TNF [1]; DMXAA alone 25 mg/kg, FIG. 3A) [fold]	increase in tumour TNF activity above control untreated mice (TNF [1]; DMXAA alone 25 mg/kg, FIG. 3B) [fold]	toxicity (cell viability, MTT) (ECV304 cells [2])	effect on DMXAA-induced serum TNF level (TNF [1]; [5])	effect on DMXAA-induced tumour TNF level (TNF [1]; [6])	tumour volumes at 21 days after treatment compared with DMXAA alone (Colon 38 tumours; [7])	inhibition of tumour growth compared with DMXAA alone (Colon 38 tumours)	inhibition of tube formation (ECV304 cells [3]; [8])	effect on LPS-induced TNF production (TNF [4])	effect on DMXAA-induced serum TNF level (TNF [1]; 20 mg/kg co-administered with DMXAA 25 mg/kg, FIG. 3A)	effect on DMXAA-induced tumour TNF level (TNF [1]; 20 mg/kg co-administered with DMXAA 25 mg/kg, FIG. 3B)	potentiation of DMXAA-induced anti-tumour effects (Colon 38 tumours; 4 mg/kg co-administered with DMXAA 25 mg/kg, FIG. 1C)	tumour volumes at 21 days after treatment compared with DMXAA alone (Colon 38 tumours; 4 mg/kg co-administered with DMXAA 25 mg/kg)	inhibition of tube formation (ECV304 cells [3]; 250 μg/ml, FIGS. 6 & 7)	inhibition at 2 µg/mL (ECV304 cells [3]; Homo sapiens, ECV-304, lowest concentration tested, 2 μg/ml, FIG. 7) [%]
Cc1ccc2c(=O)c3cccc(CC(=O)O)c3oc2c1C [DMXAA, 5,6-dimethylxanthenone-4-acetic acid, reference compound]	20	50													
NC(=O)C(CCC(=O)O)N1C(=O)c2ccccc2C1=O (stereo not shown) [PiG, 5-Amino-4-(1,3-dioxo-1,3-dihydro-2H-isoindol-2-yl)-5-oxopentanoic acid]			No toxicity was observed	had no effect	had no effect	no significant difference in tumour volumes	did not inhibit tumour growth above that of DMXAA alone	did not show any inhibition	no significant effect						
NC(=O)CCC(C(=O)O)N1C(=O)c2ccccc2C1=O (stereo not shown) [PG, 5-Amino-2-(1,3-dioxo-1,3-dihydro-2H-isoindol-2-yl)-5-oxopentanoic acid]			No toxicity was observed	had no effect	had no effect	no significant difference in tumour volumes	did not inhibit tumour growth above that of DMXAA alone	did not show any inhibition	no significant effect						
O=C1CCC(N2C(=O)c3ccccc3C2=O)C(=O)N1 (stereo not drawn) [thalidomide, α-phthalimidoglutarimide]			No toxicity was observed	reduced DMXAA-induced TNF levels in serum	no significant effect	significantly smaller tumour volumes than those treated by DMXAA alone	greater inhibition of tumour growth than that of DMXAA alone		significantly decreased LPS-induced TNF levels in a dose-dependent manner	reduced DMXAA-induced TNF levels in serum	no significant effect	neither CG nor thalidomide showed potentiation	no significant difference	Near complete inhibition	38 to 41
